Measured values reported in publication PMC7827382, “Sterols and Triterpenes from Dobera glabra Growing in Saudi Arabia and Their Cytotoxic Activity” (Plants, 2021).
Values after ≈ are worked out from the molar mass of the structure shown. “Also recorded” adds a separate entry of the source. Read-outs that look alike come from different tables or passages of the source.

Key:
[1] = system: colorectal cancer cell (HCT-116); test: Cytotoxic activity, MTT assay, HCT-116; format: cell-based, human; details: for IC50: Homo sapiens, HCT-116, 48 h, read-out: HCT-116 IC50
[2] = system: prostate carcinoma cells (PC-3); test: Cytotoxic activity, MTT assay, PC-3; format: cell-based, human; details: for IC50: Homo sapiens, 48 h, read-out: PC-3 IC50
[3] = system: hepatocellular carcinoma cells (HepG-2); test: Cytotoxic activity, MTT assay, HepG-2; format: cell-based, human; details: for IC50: Homo sapiens, HepG2, 48 h, read-out: HepG-2 IC50
[4] = system: African green monkey kidney cell line (Vero-B); test: Cytotoxic activity, MTT assay, normal Vero-B cells; format: cell-based; details: for IC50: Chlorocebus sabaeus, Vero B, read-out: VERO-B IC50
[5] = system: HCT-116, PC-3, and HepG-2; test: Antitumor activity against cancer cell lines, summary in words; format: cell-based, human; details: HCT-116, PC-3 and HepG-2 cell lines
[6] = target: phosphodiesterase I (Crotalus adamanteus, UniProt J3SEZ3); test: biochemical; design: species or system snake
phosphodiesterase I, sequence (J3SEZ3 24-851 limits assumed): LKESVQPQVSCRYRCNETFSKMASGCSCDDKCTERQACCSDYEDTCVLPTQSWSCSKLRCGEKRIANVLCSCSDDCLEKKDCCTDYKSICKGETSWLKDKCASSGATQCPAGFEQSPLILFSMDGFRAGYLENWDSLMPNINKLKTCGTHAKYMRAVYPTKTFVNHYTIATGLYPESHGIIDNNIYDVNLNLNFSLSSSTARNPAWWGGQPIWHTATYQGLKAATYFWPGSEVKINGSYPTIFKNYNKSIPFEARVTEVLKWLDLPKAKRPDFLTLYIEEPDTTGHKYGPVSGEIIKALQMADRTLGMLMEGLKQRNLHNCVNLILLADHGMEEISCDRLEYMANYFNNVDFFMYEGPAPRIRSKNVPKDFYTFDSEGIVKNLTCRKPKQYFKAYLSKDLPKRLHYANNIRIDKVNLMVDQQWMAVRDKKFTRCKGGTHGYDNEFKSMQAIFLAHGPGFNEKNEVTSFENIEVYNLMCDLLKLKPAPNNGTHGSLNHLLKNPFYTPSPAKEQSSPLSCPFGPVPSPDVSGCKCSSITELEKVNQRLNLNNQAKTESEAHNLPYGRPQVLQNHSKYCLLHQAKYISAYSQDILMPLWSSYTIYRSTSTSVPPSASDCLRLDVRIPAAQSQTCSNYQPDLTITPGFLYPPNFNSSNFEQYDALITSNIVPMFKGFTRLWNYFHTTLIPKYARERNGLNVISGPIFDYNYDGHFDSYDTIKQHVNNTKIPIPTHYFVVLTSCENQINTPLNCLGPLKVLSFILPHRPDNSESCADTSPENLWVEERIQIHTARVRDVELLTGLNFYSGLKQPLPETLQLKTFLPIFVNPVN

[7] = system: Vero cell line; test: Wound-healing assay; format: cell-based, African green monkey; details: 35 or 70 µM; up to 48 h
[8] = MTT, 48 h incubation, ± SD of three experiments
[9] = normal cells, MTT, 48 h incubation, ± SD of three experiments

## N.N.[Cl][Pt][Cl] [Cisplatin, cis-diamineplatinum (II) dichloride, reference compound]
[1]; [8]
  HCT-116 IC50: 12.6 ± 2 µg/mL
[2]; [8]
  PC-3 IC50: 5 ± 0.45 µg/mL
[3]; [8]
  HepG-2 IC50: 5 ± 1.5 µg/mL
[4]; [9]
  VERO-B IC50: 11 ± 1.3 µg/mL

## C=C(C)[C@@H]1CC[C@]2(C)CC[C@]3(C)[C@H](CC[C@@H]4[C@@]5(C)CC[C@H](O)C(C)(C)[C@@H]5CC[C@]43C)[C@@H]12 [Compound 1, lupeol]
[1]; [8]
  IC50: > 100 µg/mL
[2]; [8]
  IC50: > 100 µg/mL
[3]; [8]
  IC50: > 100 µg/mL
[4]; [9]
  IC50: > 100 µg/mL

## CC(=O)[C@@H]1CC[C@]2(C)CC[C@]3(C)[C@H](CC[C@@H]4[C@@]5(C)CC[C@H](O)C(C)(C)[C@@H]5CC[C@]43C)[C@@H]12 [Compound 2, 30-norlup-3β-ol-20-one]
[1]; [8]
  IC50: > 100 µg/mL
[2]; [8]
  IC50: > 100 µg/mL
[3]; [8]
  IC50: > 100 µg/mL
[4]; [9]
  IC50: > 100 µg/mL

## C=C(C)[C@@H]1CC[C@]2(C)CC[C@]3(C)[C@@H](CC[C@@H]4[C@@]5(C)C=CC(=O)C(C)(C)[C@@H]5CC[C@]43C)[C@@H]12 [Compound 3, ∆^1-lupenone]
[1]; [8]
  IC50: > 100 µg/mL
[2]; [8]
  IC50: > 100 µg/mL
[3]; [8]
  IC50: > 100 µg/mL
[4]; [9]
  IC50: > 100 µg/mL

## C=C(CO)[C@@H]1CC[C@]2(C)CC[C@]3(C)[C@H](CC[C@@H]4[C@@]5(C)CC[C@H](O)C(C)(C)[C@@H]5CC[C@]43C)[C@@H]12 [Compound 4, lup-20(29)-ene-3β,30-diol]
[1]; [8]
  IC50: > 100 µg/mL
[2]; [8]
  IC50: > 100 µg/mL
[3]; [8]
  IC50: > 100 µg/mL
[4]; [9]
  IC50: > 100 µg/mL

## C=C(C)[C@@H]1CC[C@]2(C)CC[C@]3(C)[C@H](CC[C@@H]4[C@@]5(C)CCC(OC(=O)/C=C/c6ccc(O)c(O)c6)C(C)(C)[C@@H]5CC[C@]43C)[C@@H]12 (some centres unmarked) [Compound 5, lupeol caffeate]
[1]; [8]
  IC50: 59 ± 0.45 µg/mL (≈ 100 µM)
[2]; [8]
  IC50: 59 ± 0.45 µg/mL (≈ 100 µM)
[3]; [8]
  IC50: 59 ± 0.45 µg/mL (≈ 100 µM)
[4]; [9]
  IC50: 81 ± 1.1 µg/mL (≈ 138 µM)

## C=C(CO)[C@@H]1CC[C@]2(C)CC[C@]3(C)[C@H](CC[C@@H]4[C@@]5(C)CCC(OC(=O)/C=C/c6ccc(O)c(O)c6)C(C)(C)[C@@H]5CC[C@]43C)[C@@H]12 (stereo partly drawn) [Compound 6, 30-hydroxy lup-20(29)-ene 3β-caffeate]
[1]; [8]
  IC50: 68 ± 1.72 µg/mL (≈ 112 µM)
[2]; [8]
  IC50: 68 ± 1.72 µg/mL (≈ 112 µM)
[3]; [8]
  IC50: 68 ± 1.72 µg/mL (≈ 112 µM)
[4]; [9]
  IC50: 68 ± 0.3 µg/mL (≈ 112 µM)

## C=C(C=O)C1CCC2(C)CCC3(C)C(CCC4C5(C)CCC(OC(=O)C=Cc6ccc(O)c(O)c6)C(C)(C)C5CCC43C)C12 (stereo not drawn) [Compound 7, lup-20(29)-ene 3β-caffeate-30-al]
[1]; [8]
  IC50: 62 ± 1.42 µg/mL (≈ 103 µM)
[2]; [8]
  IC50: 62 ± 1.42 µg/mL (≈ 103 µM)
[3]; [8]
  IC50: 62 ± 1.42 µg/mL (≈ 103 µM)
[4]; [9]
  IC50: > 100 µg/mL

## CC[C@H](CC[C@@H](C)[C@H]1CC[C@H]2[C@@H]3CC=C4C[C@@H](O)CC[C@]4(C)[C@H]3CC[C@]12C)C(C)C [Compound 9, β-sitosterol]
[1]
  IC50: > 100 µg/mL
[2]
  IC50: > 100 µg/mL
[3]
  IC50: > 100 µg/mL
[5]
  antitumor activity (in words): no activity
[4]; 48 h
  IC50: > 100 µg/mL

## CC[C@H](CC[C@@H](C)C1CCC2C3C(O)C=C4C[C@@H](O)CC[C@]4(C)C3CC[C@@]21C)C(C)C (stereo partly drawn) [Compound 11, 7α-hydroxy-β-sitosterol]
[1]; [8]
  IC50: ~8 µg/mL (≈ 18.6 µM)
[6]; read-out: phosphodiesterase I enzyme inhibition
  inhibition at 2 µM: 80.2%
[7]
  wound healing of normal cells: able to heal the wound at a rate closer to that observed for untreated cells; also recorded: wound size decreased
[2]; [8]
  IC50: ~8 µg/mL (≈ 18.6 µM)
[3]; [8]
  IC50: ~8 µg/mL (≈ 18.6 µM)
[5]
  antitumor activity (in words): broad-spectrum activity
[4]; [9]
  IC50: 70 ± 0.5 µg/mL (≈ 163 µM)

## CC[C@H](CC[C@@H](C)C1CCC2C3C(=O)C=C4C[C@@H](O)CC[C@]4(C)C3CC[C@@]21C)C(C)C (stereo partly drawn) [Compound 13, 7-keto-β-sitosterol]
[1]; [8]
  IC50: 22.3 ± 0.24 µg/mL (≈ 52 µM)
[2]; [8]
  IC50: 22.3 ± 0.24 µg/mL (≈ 52 µM)
[3]; [8]
  IC50: 22.3 ± 0.24 µg/mL (≈ 52 µM)
[5]
  antitumor activity (in words): moderate activity
[4]; [9]
  IC50: 64 ± 1.1 µg/mL (≈ 149 µM)

## O=C(O)CN(CCN(CC(=O)O)CC(=O)O)CC(=O)O [EDTA, reference compound]
[6]; positive control, read-out: IC50 ± SD, phosphodiesterase I
  IC50: 274 ± 0.007 µM
